# Residues, ends and D or L forms follow the SMILES beside them.
# Legend:
# in vitro [1] = conditions: hepatocytes
# physchem [2] = conditions: octan-1-ol/water
# in vitro [3] = conditions: human, plasma
# physchem [4] = conditions: pH 7.4 buffer
Structure (SMILES),hepatocyte CLint (in vitro [1]) [µL/min/1e6 cells],"logD (physchem [2]; pH 7.4, LogD7.4)",further results
Nc1ccc2c(-c3ccncc3)c(-c3ccc(F)cc3)[nH]c2n1,117,–,–
COc1ccc2nc(C)cc(-n3cc(CN4CCN(C(C)=O)CC4)nn3)c2c1,5.13,1.3,–
Cc1nc(C(=O)N2CCOC3(CCN(Cc4ccc(Cl)cc4)CC3)C2)cs1,47,2.17,–
Cc1cc(NC(=O)Nc2cccc3ccccc23)no1,95.5,–,–
Cn1sc(=O)c2cc(S(=O)(=O)NC3CC3)ccc21,> 150,1.3,–
COc1cc2cc(-c3ccc(O)cc3O)nc(C)c2cc1OC,> 150,–,–
C[C@@H]1CN(Cc2cc(Cl)ccc2OCC(=O)O)CCN1S(=O)(=O)c1ccccc1,7.48,–,fraction unbound at 5 h (in vitro [3]; PPB): 0.0051
NCCc1ccc(O)c2nc(O)sc12,> 150,–,logD (physchem [2]; pH 7.4): 0.33
Cc1cc(Nc2nc(N[C@@H](C)c3ccc(F)cn3)c(C#N)cc2Cl)n[nH]1,6.17,–,fraction unbound at 5 h (in vitro [3]; PPB): 0.0358
COc1cccc(CNc2nc(NC(C)C)nc3ccsc23)c1OC,> 150,–,fraction unbound at 5 h (in vitro [3]): 0.0027
COc1ccc2ncc(F)c(CCN3CCC(NCc4ccc5c(n4)NC(=O)CO5)CC3)c2n1,39.8,1.78,–
COc1ccc2ncc(=O)n(CCN3CCC(NCc4cc5c(cn4)OCCO5)CC3)c2c1,> 150,0.93,–
C[C@@](C(=O)O[C@H]1C[N+]2(CCCc3ccncc3)CCC1CC2)(c1ccccc1)N1CCCCC1,82,–,fraction unbound at 5 h (in vitro [3]): 0.483
C[C@@](C(=O)O[C@H]1C[N+]2(CCOCCc3ccccc3)CCC1CC2)(c1ccccc1)N1CCCCC1,77,–,–
CC(C)=CCC[N+]12CCC(CC1)[C@@H](OC(=O)[C@](C)(c1ccccc1)N1CCCCC1)C2,101,–,–
CN[C@@H](C)C(=O)N[C@H](C(=O)N[C@H]1C[C@@H]2CC[C@H]1N(CCc1ccccc1)C2)C1CCCCC1,19.9,1.64,–
C[C@@](CCc1ccc(-c2ccc(Cl)cc2)cc1)(C(=O)NO)S(C)(=O)=O,< 3,2.4,–
Cc1ccccc1-c1c(C(=O)O)n(CCCOc2cccc3ccccc23)c2ccccc12,123,3.89,–
CCNC(=O)c1ccc(C)c(-n2cnc3ccc(N4CCN(C)CC4)cc3c2=O)c1,< 3,1.47,–
O=C(Nc1cccc(-c2nnn[nH]2)c1)c1cccc2[nH]cnc12,44.7,-0.05,–

Structure (SMILES),hepatocyte CLint (in vitro [1]) [µL/min/1e6 cells],"logD (physchem [2]; pH 7.4, LogD7.4)",further results
O=C(Nc1cccc(-c2nnn[nH]2)c1)c1cc(O)cc(C(F)(F)F)c1,29.5,0.8,–
Nc1cc(C(=O)Nc2cccc(-c3nnn[nH]3)c2)cc(C(F)(F)F)c1,23.4,0.2,–
O=C(Nc1cccc(-c2nnn[nH]2)c1)c1cc(F)cc2nc[nH]c12,67.6,0.29,–
NC1(c2ccc(-c3nc4ccccc4cc3-c3ccccc3)cc2)CCC1,148,–,solubility thermodynamic (physchem [4]): 288 µM
Cc1ccc(-c2nc3ccccc3[nH]2)cc1NC(=O)c1ccc(OCc2ccccn2)cc1,10.2,3.24,–
Cc1ccc(C[C@@H](C(=O)O)N2CCC(CN3CCC(Oc4ccc(Cl)c(Cl)c4)CC3)CC2)cc1,< 3,–,–
Cc1c(C(=O)NC2C3CC4CC(C3)CC2C4)cnn1-c1ccc(C(=O)O)cc1 (configuration not stated),< 3,–,–
CCC(C)(C)C[C@H](c1ccc(C(=O)O)c(Oc2cccc(Cl)c2)c1)N1CCC[C@H](n2cc(C)c(=O)[nH]c2=O)C1,117,1.37,–
CCCCC[C@H](c1ccc(C(=O)O)c(Oc2cccc(Br)c2)c1)N1CCC[C@H](n2cc(C)c(=O)[nH]c2=O)C1,30.2,1.69,–
CCC(C)(CC)C[C@H](c1ccc(C(=O)O)c(Oc2cccc(Br)c2)c1)N1CCC[C@H](n2cc(C)c(=O)[nH]c2=O)C1,69.2,1.97,–
Cc1cc(Oc2cc(S(=O)(=O)N3CCC[C@H](n4cc(C)c(=O)[nH]c4=O)C3)ccc2O)ccc1Cl,20.4,2.4,–
Cc1cn([C@H]2CCCN(S(=O)(=O)c3ccc(O)c(Oc4cc(F)cc(Cl)c4)c3)C2)c(=O)[nH]c1=O,74.1,–,fraction unbound at 5 h (in vitro [3]; PPB): 0.0119
O=C(O)c1cc2cc(OCc3ccccc3)ccc2[nH]1,25.7,0.4,–
O=c1cc(-c2ccc(Br)cc2)oc2ccccc12,< 3,–,–
CC(C)C[C@H](N)C(=O)NC[C@H](O)C[C@@H](N)CC(=O)NN(C)CC(=O)O,< 3,–,–
C=CC(=O)Nc1ccc2ncnc(Nc3cccc(C)c3)c2c1,> 150,3.7,solubility thermodynamic (physchem [4]): 16.6 µM
COc1ccc(C)c(Nc2ncc3ccn(-c4ccccn4)c3n2)c1,83.2,–,–
O=C([C@@H]1CCCN1)N1CCN(c2nc(NCc3ccc(Cl)cc3Cl)c3cccnc3n2)CC1,6,2.41,–
CNC(=O)c1c(F)cccc1Nc1nc(Nc2cc3c(cc2OC)CCN3C(=O)CN(C)C)nc2[nH]ccc12,21.9,2.61,–
O=C(c1ccc(O)cc1O)N1CCCC1,> 150,–,–

Structure (SMILES),hepatocyte CLint (in vitro [1]) [µL/min/1e6 cells],"logD (physchem [2]; pH 7.4, LogD7.4)",further results
COc1ccc(N(C(=O)c2ccccc2)C(C(=O)NC[C@@H](C)O)c2ccccc2F)c(OC)c1 (some centres not stated),> 150,–,–
CS(=O)(=O)N1CC[C@H](N(Cc2ccccc2Cl)c2ccc(C#N)c(Cl)c2)C1,72.4,–,logD (physchem [2]; pH 7.4): 4
"CCCCCCCC(=O)N[C@@H](C)C(=O)N[C@H](C(=O)N[C@@H](CCN)C(=O)N[C@H]1CCNC(=O)[C@H]([C@@H](C)O)NC(=O)[C@H](CCN)NC(=O)[C@H](CCN)NC(=O)[C@H](CC(C)C)NC(=O)[C@@H](Cc2ccccc2)NC(=O)[C@H](CCN)NC1=O)[C@@H](C)O (HELM PEPTIDE1{[CCCCCCCC(=O)[*:2]].A.T.[Dab].[Dab].[Dab].[dF].L.[Dab].[Dab].T}$PEPTIDE1,PEPTIDE1,5:R3-11:R2$$$V2.0)",< 3,–,fraction unbound at 5 h (in vitro [3]; PPB): 0.107
"CCCCCCCC(=O)N[C@@H](CCN)C(=O)N[C@@H](C)C(=O)N[C@@H](CCN)C(=O)N[C@H]1CCNC(=O)[C@H]([C@@H](C)O)NC(=O)[C@H](CCN)NC(=O)[C@H](CCN)NC(=O)[C@H](CC(C)C)NC(=O)[C@@H](Cc2ccccc2)NC(=O)[C@H](CCN)NC1=O (HELM PEPTIDE1{[CCCCCCCC(=O)[*:2]].[Dab].A.[Dab].[Dab].[Dab].[dF].L.[Dab].[Dab].T}$PEPTIDE1,PEPTIDE1,5:R3-11:R2$$$V2.0)",< 3,–,fraction unbound at 5 h (in vitro [3]; PPB): 0.0768
CN(C)CC[C@H](CSc1ccccc1)Nc1ccc(S(=O)(=O)NC(=O)c2ccc(N3CCN(Cc4ccccc4-c4ccc(Cl)cc4)CC3)cc2)cc1[N+](=O)[O-] [ABT 737],9.55,–,–
CCC1(CCC(C)C)C(=O)NC(=O)NC1=O [AMOBARBITAL],11.8,–,–
COc1cc2nccc(Oc3ccc(NC(=O)C4(C(=O)Nc5ccc(F)cc5)CC4)cc3)c2cc1OC [CABOZANTINIB],3.16,–,–
CC1=C(C(=O)O)N2C(=O)[C@@H](NC(=O)[C@H](N)c3ccc(O)cc3)[C@H]2SC1 [CEFADROXIL],< 3,-0.86,–
C[C@H]1Cc2c([nH]c3cc(Cl)c(F)cc23)[C@@]2(N1)C(=O)Nc1ccc(Cl)cc12 [CIPARGAMIN],8.71,–,–
CC(C)OC(=O)C(C)(C)Oc1ccc(C(=O)c2ccc(Cl)cc2)cc1 [FENOFIBRATE],54,–,–
O=C(O)c1cc2ccccc2[nH]1 [INDOLE-2-CARBOXYLIC ACID],11,–,–
N[C@@H](C(=O)N[C@@H]1C(=O)N2C(C(=O)O)=C(Cl)CC[C@H]12)c1ccccc1 [LORACARBEF ANHYDROUS],< 3,–,–
CC1(C)CCC(c2ccc(Cl)cc2)=C(CN2CCN(c3ccc(C(=O)NS(=O)(=O)c4ccc(N[C@H](CCN5CCOCC5)CSc5ccccc5)c(S(=O)(=O)C(F)(F)F)c4)cc3)CC2)C1 [NAVITOCLAX],9.77,0.64,–
COC1=CC(c2cc3ccccc3[nH]2)=N/C1=C\c1[nH]c(C)cc1C [OBATOCLAX],22.4,2.55,–
Cc1ccccc1C(OCCN(C)C)c1ccccc1 (configuration not stated) [ORPHENADRINE],> 150,1.47,–
CO[C@H]1/C=C/O[C@@]2(C)Oc3c(C)c(O)c4c(O)c(cc(O)c4c3C2=O)NC(=O)/C(C)=C\C=C\[C@H](C)[C@H](O)[C@@H](C)[C@@H](O)[C@@H](C)[C@H](OC(C)=O)[C@@H]1C [RIFAMYCIN],< 3,1.19,–
CO[C@H]1C[C@@H]2CC[C@@H](C)[C@@](O)(O2)C(=O)C(=O)N2CCCC[C@H]2C(=O)O[C@H]([C@H](C)C[C@@H]2CC[C@@H](OC(=O)C(C)(CO)CO)[C@H](OC)C2)CC(=O)[C@H](C)/C=C(\C)[C@@H](O)[C@@H](OC)C(=O)[C@H](C)C[C@H](C)/C=C/C=C/C=C/1C [TEMSIROLIMUS],> 150,–,–
CC[C@@]1(O)C(=O)OCc2c1cc1n(c2=O)Cc2cc3c(CN(C)C)c(O)ccc3nc2-1 [TOPOTECAN],3.24,0.31,–

# From ChEMBL document CHEMBL3301361, “Experimental in vitro DMPK and physicochemical data on a set of publicly disclosed compounds”
